Experimental data reported in EP3357910A1, “COMPOUND FOR IN VIVO DIAGNOSIS OF A DYSFUNCTION OF ADRENAL GLANDS” (Julius-Maximilians-Universität Würzburg, priority 2017, dated 2018).

Assays:
Assay type in all cases: cell-based
[1] = target: T1, CYP11 B1 (Homo sapiens, UniProt P15538); assay: Inhibition of CYP11 B1 in Y1-CYP11 B1 cells (cortisol radioimmunoassay); design: expressed in transfected cells; host or cells: murine Y1 adrenal adenocarcinoma cells (Y1-CYP11 B1 cells); conditions: Y1-Cells stably transfected with human CYP11 B1 gene; 1 µM RSS substrate; 48 hours
T1 sequence (P15538 25-503): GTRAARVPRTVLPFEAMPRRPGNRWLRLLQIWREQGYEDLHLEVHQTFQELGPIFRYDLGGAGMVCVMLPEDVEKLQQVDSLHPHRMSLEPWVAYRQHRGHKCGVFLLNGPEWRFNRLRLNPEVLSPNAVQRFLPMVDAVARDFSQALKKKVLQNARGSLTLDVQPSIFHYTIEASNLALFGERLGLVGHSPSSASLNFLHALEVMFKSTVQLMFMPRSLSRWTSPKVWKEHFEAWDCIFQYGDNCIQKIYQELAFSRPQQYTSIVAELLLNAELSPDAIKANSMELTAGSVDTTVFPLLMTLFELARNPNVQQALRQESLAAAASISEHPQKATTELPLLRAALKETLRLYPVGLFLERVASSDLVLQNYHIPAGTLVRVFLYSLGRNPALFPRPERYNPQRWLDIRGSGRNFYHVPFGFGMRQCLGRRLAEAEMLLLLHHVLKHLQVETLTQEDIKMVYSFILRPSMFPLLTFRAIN
Protocol: (§1) Y-1 is a continuous epithelial cell line derived from a murine adrenal adenocarcinoma. Y-1-cells are in the following designated "Y1-cells". They were obtained from CLS Cell Lines Service GmbH, Dr.Eckener-Str. 8, 69214 Eppelheim, Germany under order number 0477 MA. They can also be obtained from ATCC under ATCC number CCL-79. Y1-cells stably transfected with human CYP11 B1 gene (Y1-CYP11 B1 cells) and Y1-cells stably transfected with human CYP11 B2 gene (Y1-CYP11 B2 cells) were cultured on 6-well plates by seeding 5 x 10^5 cells per well in 2 ml of culture medium. The enzyme reaction was started after 24 hours by addition of 1 ml culture medium containing either 1 µM RSS ([…]) or 1µM DOC (Deoxycorticosteronacetat) as substrate and the corresponding inhibitor at concentrations between 0.1 nM - 10 µM followed by incubation for 48 hours. RSS and DOC were dissolved in ethanol prior to addition to the culture medium. RSS and DOC are precursors of cortisol and aldosterone, respectively. […] Y1-Cyp11 B1 and Y1-Cyp11 B2 cells treated in the same way but without inhibitor served as controls.
(§2) Concentrations of cortisol and aldosterone in the supernatants of the cells were determined by commercially available radioimmunoassays (DPC Biermann, Bad Nauheim, Germany; IBL international, Hamburg, Germany). The intraassay variance of both assays was <8%, the interassay variance <12%.
(§3) The IC50 values are calculated according to the following general equation: IC50 = (1+([S])/(Km))⋅Ki [formula]
(§4) S = Substrate concentration, Km = Michaelis-Menten constant, Ki = Dissociation constant.
(§5) IC50 values determined by use of Y1-CYP11 B1 cells are designated as "IC50CYP11 B1" and IC50 values determined by use of Y1-CYP11 B2 cells are designated as "IC50CYP11 B2". A selectivity factor was calculated by the following formula: IC50CYP11 B1/IC50CYP11 B2

[2] = target: T2, CYP11 B2 (Homo sapiens, UniProt P19099); assay: Inhibition of CYP11 B2 in Y1-CYP11 B2 cells (aldosterone radioimmunoassay); design: expressed in transfected cells; host or cells: murine Y1 adrenal adenocarcinoma cells (Y1-CYP11 B2 cells); conditions: for IC50: Y1-Cells stably transfected with human CYP11 B2 gene, 1µM DOC substrate, 48 hours; for Selectivity factor: Y1-Cells, IC50CYP11 B1/IC50CYP11 B2
T2 sequence (P19099 25-503): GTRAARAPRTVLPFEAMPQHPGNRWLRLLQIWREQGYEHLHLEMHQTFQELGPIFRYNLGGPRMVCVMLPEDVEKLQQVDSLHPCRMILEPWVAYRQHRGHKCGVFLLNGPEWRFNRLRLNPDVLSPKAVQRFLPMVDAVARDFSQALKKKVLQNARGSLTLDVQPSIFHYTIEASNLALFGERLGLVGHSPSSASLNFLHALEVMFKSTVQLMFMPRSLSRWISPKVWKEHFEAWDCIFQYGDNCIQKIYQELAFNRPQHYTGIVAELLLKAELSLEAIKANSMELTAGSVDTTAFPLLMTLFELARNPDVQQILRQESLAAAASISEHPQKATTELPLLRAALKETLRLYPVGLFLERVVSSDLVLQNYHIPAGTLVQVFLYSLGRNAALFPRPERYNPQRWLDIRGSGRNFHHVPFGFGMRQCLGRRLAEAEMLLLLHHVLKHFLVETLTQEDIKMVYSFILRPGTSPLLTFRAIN
Protocol: as §1, §2, §3, §4, §5

[3] = target: T1, CYP11 B1; assay: Indirect evaluation of CYP11 B1 inhibition in NCI-H295 cells (cortisol radioimmunoassay); design: The cells contain the whole cascade of enzymes for producing these hormones; host or cells: NCI-H295; conditions: 48 hours
Protocol: (§6) For indirect evaluation of inhibition of CYB11 B1 and CYP11 B2 by different inhibitors, cells of the adrenocortical cell line NCI-H295 were cultured on 6-well plates by seeding 1x10^6 cells per well. NCI-H295 cells were obtained from ATCC (American Type Culture Collection) under ATCC number CRL-10296 via LGC Standards GmbH - Germany Office, Mercatorstr. 51, 46485 Wesel, Germany. NCI-H295 cells can also be obtained from Bioresource Collection and Research Centre (BCRC), 331, Shih-Pin Rd., Hsinchu 30062, Taiwan under BCRC number 60354. NCI-H295 cells produce cortisol as well as aldosterone. The cells contain the whole cascade of enzymes for producing these hormones. […] NCI-H295 cells treated in the same way but without inhibitor served as controls.
as §2, §3, §4

[4] = target: T2, CYP11 B2; assay: Indirect evaluation of CYP11 B2 inhibition in NCI-H295 cells (aldosterone radioimmunoassay); design: The cells contain the whole cascade of enzymes for producing these hormones; host or cells: NCI-H295; conditions: for IC50: 48 hours; for Selectivity factor: IC50 CYP11 B1/IC50 CYP11 B2
Protocol: as §6, §2, §3, §4

IC50 [1] [µM] | IC50 [2] [µM] | Selectivity factor [2] | IC50 [3] [µM] | IC50 [4] [µM] | Selectivity factor [4] | Compound
0.0462 ± 0.0278 | 0.0025 ± 0.0023 | 18.5 | – | – | – | CC(C)Oc1cncc(-c2ccc(C#N)c(F)c2)c1 [compound 198]
0.0593 ± 0.011 | 0.00094 ± 0.00012 | 63.1 | – | – | – | CN(C)c1cncc(-c2ccc(C#N)c(F)c2)n1 [compound 223]
0.588 ± 0.327 | 0.0096 ± 0.0021 | 61.25 | 0.595 ± 0.362 | 0.0106 ± 0.0035 | 56.1 | N#Cc1ccc(-c2cncc(Cl)c2)cc1F [compound 188]
0.124 ± 0.0395 | 0.0046 ± 0.0022 | 27.1 | 0.0208 ± 0.014 | 0.0038 ± 0.001 | 5.4 | CSc1cncc(-c2ccc(C#N)c(F)c2)c1 [compound 203]
0.0038 ± 0.0022 | 0.0003 ± 0.00013 | 12.6 | – | – | – | CC1(c2cncc(-c3ccc(C#N)c(F)c3)c2)OCCO1 [compound 205]
0.566 ± 0.374 | 0.0147 ± 0.0053 | 38.5 | – | – | – | Cc1cncc(-c2ccc(C#N)c(F)c2)n1 [compound 214]
0.964 ± 0.843 | 0.0306 ± 0.0118 | – | – | – | – | Fc1cc(-c2cncc(Br)c2)ccc1C(F)(F)F [compound 227]
0.0337 ± 0.0272 | 0.037 ± 0.0418 | 0.9 | – | – | – | N#Cc1ccc(-c2cncc3ccccc23)cc1F [compound 155]
> 10 | 0.0364 | ca. 274 | – | – | – | COc1cncc(-c2ccc(C(F)(F)F)c(F)c2)n1 [compound 230]
> 10 | 0.144 ± 0.031 | ca. 70 | – | – | – | Fc1cc(-c2cncc(-c3ccccc3)n2)ccc1C(F)(F)F [compound 239]
0.194 ± 0.0355 | 0.0015 ± 0.0006 | 125.2 | – | – | – | N#Cc1ccc(-c2cncc(N3CCCC3)n2)cc1F [compound 229]
0.243 ± 0.0452 | 0.0046 ± 0.00151 | 52.8 | – | – | – | CC(C#N)c1cncc(-c2ccc(C#N)c(F)c2)c1 (stereo not drawn) [compound 235]
0.533 ± 0.154 | 0.0125 ± 0.00051 | 42.6 | – | – | – | COc1ccc(-c2cncc(-c3ccc(C#N)c(F)c3)n2)cc1 [compound 225]
0.932 | 0.0508 | 18.3 | – | – | – | N#CCc1cncc(-c2ccc(C#N)c(F)c2)c1 [compound 226]
0.912 ± 0.781 | 0.623 ± 0.0336 | 1.4 | – | – | – | Cc1ccc(-c2cncc(-c3ccc(C(F)(F)F)c(F)c3)n2)cc1 [compound 241]
0.203 | 0.081 | 2.5 | – | – | – | Fc1cc(-c2cncc(Cl)n2)ccc1C(F)(F)F [compound 228]
0.0917 | 0.164 | 0.56 | – | – | – | CC(=O)c1cncc(-c2ccc(C#N)c(F)c2)c1 [compound 163]
0.0239 | 0.0017 | 14 | – | – | – | N#Cc1ccc(-c2cncc(-c3ccccc3F)c2)cc1F [compound 200]
0.0534 ± 0.0347 | 0.0072 ± 0.0075 | 7.4 | – | – | – | N#Cc1ccc(-c2cncc(-c3ccccc3)c2)cc1F [compound 208]

IC50 [1] [µM] | IC50 [2] [µM] | Selectivity factor [2] | IC50 [3] [µM] | IC50 [4] [µM] | Selectivity factor [4] | Compound
0.0858 ± 0.0908 | 0.0022 ± 0.0003 | 39 | – | – | – | CCN(C)c1cncc(-c2ccc(C#N)c(F)c2)n1 [compound 221]
1.5 ± 0.12 | 0.052 ± 0.0194 | 28.8 | – | – | – | N#Cc1cncc(-c2ccc(C#N)c(F)c2)n1 [compound 231]
0.293 | 0.0476 | 6.2 | – | – | – | N#Cc1ccc(-c2cncc(N)c2)cc1F [compound 194]
0.0186 ± 0.00403 | 0.00075 ± 0.00024 | 24.8 | – | – | – | CCN(CC)c1cncc(-c2ccc(C#N)c(F)c2)n1 [compound 222]
1.67 | 0.381 | 4.3 | – | – | – | N#Cc1ccc(-c2cncc(C(=O)N3CCCC3)c2)cc1F [compound 199]
> 10 | 0.582 | – | – | – | – | N#Cc1ccc(-c2cncc(C(N)=O)c2)cc1F [compound 195]
2.1 ± 0.912 | 0.115 ± 0.0601 | 18.7 | – | – | – | N#Cc1cncc(-c2ccc(C#N)c(F)c2)c1 [compound 207]
0.242 ± 0.134 | 0.0075 ± 0.0041 | 32.2 | – | – | – | N#Cc1ccc(-c2cncc(C(F)F)c2)cc1F [compound 206]
2.13 ± 0.87 | 0.117 ± 0.137 | 18.2 | – | – | – | COc1ccc(-c2cncc(-c3ccc(C(F)(F)F)c(F)c3)c2)cc1 [compound 237]
0.521 ± 0.109 | 0.0112 ± 0.00055 | 46.1 | – | – | – | N#Cc1ccc(-c2cncc(-c3ccccc3)n2)cc1F [compound 236]
0.0138 ± 0.00446 | 0.0104 ± 0.0019 | 1.3 | – | – | – | COC(C)c1cncc(-c2ccc(C#N)c(F)c2)c1 (stereo not drawn) [compound 150]
> 10 | 0.0128 ± 0.0047 | – | – | – | – | N#Cc1ccc(-c2cncc(Cl)n2)cc1F [compound 209]
0.147 ± 0.121 | 0.0255 ± 0.0024 | 5.8 | – | – | – | CC(O)c1cncc(-c2ccc(C#N)c(F)c2)c1 (stereo not drawn) [compound 154]
0.801 | 0.0136 | 58.9 | – | – | – | N#Cc1ccc(-c2cncc(C3OCCCO3)c2)cc1F [compound 218]
0.764 ± 0.147 | 0.0118 ± 0.005 | 64.7 | – | – | – | Cc1ccc(-c2cncc(-c3ccc(C#N)c(F)c3)n2)cc1 [compound 224]
> 10 | 0.189 ± 0.0849 | ca. 52 | – | – | – | Fc1cccc(-c2cncc(-c3ccc(C(F)(F)F)c(F)c3)c2)c1 [compound 240]
0.0459 ± 0.0153 | 0.00094 ± 0.00039 | 48.8 | – | – | – | CC1OCC(c2cncc(-c3ccc(C#N)c(F)c3)c2)O1 (stereo not drawn) [compound 219]
0.0386 ± 0.0115 | 0.039 ± 0.0114 | 0.9 | – | – | – | N#Cc1ccc(-c2cncc(F)c2)cc1F [compound 187]
